From PubChem BioAssay (NCI)
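Dose response: 5 concentrations. Exposure: 48 h. Format: 96-well plates. Endpoint: linear interpolation; highest concentration if not reached. Here, GI50 denotes the concentration required for 50% inhibition of growth. TGI: concentration producing complete growth inhibition.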 Where a SMILES comes first, the peptide text is derived from it. [ ]: non-standard residue; d: D form. The star is where a group is joined. Cbz = O=C(OCc1ccccc1)*; Aib = CC(C)(N)C(=O)O; OBn = c1ccc(CO*)cc1

These compounds were tested on HL-60(TB) leukemia (assay: inhibition of tumour cell growth, NCI panel, 48 h).
In the case of `CN1Cc2c(nc(-c3ccccc3)c[n+]2[O-])N(C)C1`, the TGI is reported as greater than 100 µM.
`C=C(CN(C)C)C(=O)c1ccc(C(=O)C(=C)CN(C)C)cc1` showed a TGI greater than 100 µM.
`CO/N=C(/C(=O)OC)c1ccccc1COc1ccccc1C(F)(F)F` gave a TGI of 51.3 µM.
`COc1cc(Nc2ccc3c(c2)CCC3)nc(OC)n1` was tested, and the TGI was greater than 100 µM.
In the case of `Cc1cc(C)nc(NC(=S)Nc2ccc([N+](=O)[O-])cc2)c1`, the TGI is reported as greater than 100 µM.
Compound `CCOC(=O)c1c2cccccc-2nc1Nc1cccc2c(C)ccnc12` has a TGI greater than 10 µM.
In the case of `O[C@H]1[C@H](O)[C@@H](O)CN2CC[C@H](O)[C@H]12`, the TGI is reported as greater than 39.8 µM.
For `CC(NC(=O)C(C)(C)NC(=O)C(CC(=O)OCc1ccccc1)NC(=O)OCc1ccccc1)C(N)=O` (stereo unspecified) (Cbz-Asp(OBn)-[Aib]-Ala-NH2; configuration not given here), the TGI was greater than 100 µM.
`c1ccc(C(C(=Nc2ccc(Cc3ccc(N=C(C(c4ccccc4)c4ccccc4)N4CC4)cc3)cc2)N2CC2)c2ccccc2)cc1` was tested, and the TGI was 18.4 µM.
`C=C(C)CNCCN` gave a TGI greater than 100 µM.
`Cc1ccnc(NC(=S)Nc2ccc([N+](=O)[O-])cc2)c1` showed a TGI greater than 100 µM.
Compound `CC(C)(CO)CNc1nc(N)nc(Cl)c1/C=N/O` has a TGI greater than 100 µM.
`O=C1c2cccc3cccc(c23)C(=O)N1CCCNCCCCNCCCNCCCN1C(=O)c2cccc3cccc(c23)C1=O` was tested, and the TGI was 1.54 µM.
For `COc1cc(C2c3cc4c(cc3[C@@H](Nc3ccccc3)C3COC(=O)[C@H]23)OCO4)cc(OC)c1O` (stereo partly specified), the TGI was 1.09 µM.
`OC(C#CCN1CCCC1)(c1ccccc1)c1ccccc1Cl` (stereo unspecified) was tested, and the TGI was 68.3 µM.
Work on `O=C1NC(O)CCN1C1OC(CO)C(O)C1O` (stereo unspecified) yielded a TGI greater than 250 µM.
`O=C1CSC2(CC(/C=C/c3cccs3)=NN2c2cccc(S(=O)(=O)O)c2)N1c1nc2ccccc2s1` (stereo unspecified) was tested, and the TGI was greater than 100 µM.
`COc1ccc(-c2nc3ccccc3c(=S)n2OC(C)=O)cc1` gave a TGI of 17.2 µM.
`O=C(c1ccccc1)c1ccc2c(c1)NC(=O)c1ccccc1SSc1ccccc1C(=O)N2` showed a TGI greater than 100 µM.
For `CC1=C(C#N)c2nc3ccccc3n2C(=O)C1(C)CCO` (stereo unspecified), the TGI was greater than 100 µM.
Work on `CCN(CC)c1ccc(/C=C/c2ccnc3ccccc23)cc1` yielded a TGI greater than 100 µM.
`CC(C)(C)N=C(N)NC#N` gave a TGI greater than 100 µM.
In the case of `CN1CCN(Cc2cc3c(nn2)-c2ccccc2C3=O)CC1`, the TGI is reported as 72.5 µM.
With `O=C(NN1C(=O)CS(=O)(=O)C1c1ccc(C(F)(F)F)cc1)c1ccncc1` (stereo unspecified) the TGI was greater than 100 µM.
`CC1(C)CCc2c(ccc(C(=O)/C=C/c3ccc(O)cc3)c2O)O1` was tested, and the TGI was 44.2 µM.
With `COc1ccc(CC(N)=O)cc1OC` the TGI was greater than 1250 µM.
Work on `CCOC(=O)CNC(=O)NC12CC3CC(CC(C3)C1)C2` yielded a TGI of 543 µM.
For `Cc1nc2ccccc2c(-n2cccn2)c1CCn1cccn1`, the TGI was greater than 100 µM.
`COc1cc2c(cc1OCCCCCN1CCN(c3ncnc4ccccc34)CC1)N=CC1CCCN1C2=O` (stereo unspecified) gave a GI50 of 0.0254 µM.
`O=C(NCCCl)O/N=C/c1cccnc1` showed a TGI greater than 100 µM.
`CC(C)C1=CC23CCC4C(C)(C(=O)O)CCCC4(C)C2CC1C1C(=O)N(CCCCCCN2C(=O)C4C5CC6C7(C)CCCC(C)(C(=O)O)C7CCC6(C=C5C(C)C)C4C2=O)C(=O)C13` (stereo unspecified) gave a TGI of 82.6 µM.
In the case of `COc1ccc(/C=N/NC(=O)c2ccc(O)c(CN(C)C)c2)cc1`, the TGI is reported as greater than 100 µM.

These compounds were tested on OVCAR-3 ovarian (assay: inhibition of tumour cell growth, NCI panel, 48 h).
`C=CC1(C)CC(=O)C2(O)C(C)(O1)C(OC(C)=O)C(O)C1C(C)(C)CCC(O)C12C` (stereo unspecified) gave a TGI greater than 150 µM.
For `CN1Cc2c(nc(-c3ccccc3)c[n+]2[O-])N(C)C1`, the TGI was greater than 100 µM.
With `C=C(CN(C)C)C(=O)c1ccc(C(=O)C(=C)CN(C)C)cc1` the TGI was greater than 100 µM.
In the case of `CO/N=C(/C(=O)OC)c1ccccc1COc1ccccc1C(F)(F)F`, the TGI is reported as greater than 100 µM.
In the case of `COc1cc(Nc2ccc3c(c2)CCC3)nc(OC)n1`, the TGI is reported as greater than 100 µM.
`CCOC(=O)c1c2cccccc-2nc1Nc1cccc2c(C)ccnc12` showed a TGI greater than 10 µM.
Work on `Cc1c2c(c(C)n1-c1ccccc1)C(=O)N(CCN1CCN(c3cccc(C(F)(F)F)c3)CC1)C2=O` yielded a TGI greater than 100 µM.
`O[C@H]1[C@H](O)[C@@H](O)CN2CC[C@H](O)[C@H]12` showed a TGI greater than 100 µM.
`O=C(OCC(Cl)(Cl)Cl)N1CC[C@H](C2CCCCC2)C1` showed a TGI of 30.3 µM.
`CC(NC(=O)C(C)(C)NC(=O)C(CC(=O)OCc1ccccc1)NC(=O)OCc1ccccc1)C(N)=O` (stereo unspecified) (Cbz-Asp(OBn)-[Aib]-Ala-NH2; configuration not given here) gave a TGI greater than 100 µM.
`c1ccc(C(C(=Nc2ccc(Cc3ccc(N=C(C(c4ccccc4)c4ccccc4)N4CC4)cc3)cc2)N2CC2)c2ccccc2)cc1` was tested, and the TGI was 24.6 µM.
With `C=C(C)CNCCN` the TGI was greater than 100 µM.
`O=C(CN1C(=O)CC(c2ccccc2)(c2ccccc2)C1=O)N1CCN(CCO)CC1` showed a TGI greater than 100 µM.
Work on `CC(C)(CO)CNc1nc(N)nc(Cl)c1/C=N/O` yielded a TGI greater than 100 µM.
`COc1ccc2oc(=N)c(C(=O)Nc3ccccc3)cc2c1` showed a TGI greater than 100 µM.
Compound `O=C1c2cccc3cccc(c23)C(=O)N1CCCNCCCCNCCCNCCCN1C(=O)c2cccc3cccc(c23)C1=O` has a TGI of 2.12 µM.
`O=c1onc2n1-c1cc(Cl)ccc1C(=S)N1CSCC21` (stereo unspecified) gave a TGI greater than 100 µM.
Compound `COc1cc(C2c3cc4c(cc3[C@@H](Nc3ccccc3)C3COC(=O)[C@H]23)OCO4)cc(OC)c1O` (stereo partly specified) has a TGI of 7.34 µM.
Work on `OC(C#CCN1CCCC1)(c1ccccc1)c1ccccc1Cl` (stereo unspecified) yielded a TGI greater than 100 µM.
`CCc1n[nH]c(=O)n1-c1ccc2ccccc2c1` gave a TGI greater than 100 µM.
With `CSc1nc2c(c(N(C)C)n1)C(O)n1c(nc3ccccc31)S2` (stereo unspecified) the TGI was greater than 63.4 µM.
For `O=C1NC(O)CCN1C1OC(CO)C(O)C1O` (stereo unspecified), the TGI was greater than 250 µM.
For `O=C(c1ccccc1)c1ccc2c(c1)NC(=O)c1ccccc1SSc1ccccc1C(=O)N2`, the TGI was greater than 100 µM.
With `CCCCOCCOC1=C(Cl)C(=O)c2c(O)ccc(O)c2C1=O` the TGI was 1.63 µM.
Compound `CC1=C(C#N)c2nc3ccccc3n2C(=O)C1(C)CCO` (stereo unspecified) has a TGI greater than 100 µM.
`CCN(CC)c1ccc(/C=C/c2ccnc3ccccc23)cc1` was tested, and the TGI was greater than 100 µM.
Compound `CC1(C)CCc2c(ccc(C(=O)/C=C/c3ccc(O)cc3)c2O)O1` has a TGI of 18.3 µM.
For `COc1ccc(CC(N)=O)cc1OC`, the TGI was greater than 1250 µM.
For `CCOC(=O)CNC(=O)NC12CC3CC(CC(C3)C1)C2`, the TGI was 398 µM.
In the case of `Cc1nc2ccccc2c(-n2cccn2)c1CCn1cccn1`, the TGI is reported as greater than 100 µM.
Compound `COc1cc2c(cc1OCCCCCN1CCN(c3ncnc4ccccc34)CC1)N=CC1CCCN1C2=O` (stereo unspecified) has a GI50 of 0.0223 µM and a TGI of 0.0512 µM.
Work on `O=C(NCCCl)O/N=C/c1cccnc1` yielded a TGI greater than 100 µM.
In the case of `C/C1=C\[C@H](C)C[C@H](C)OC(=O)[C@H](C)NC(=O)[C@@H](Cc2ccc(O)c(Br)c2)N(C)C(=O)[C@H](C)NC(=O)[C@@H](C)C1`, the TGI is reported as 3.84 µM.
`CC(C)C1=CC23CCC4C(C)(C(=O)O)CCCC4(C)C2CC1C1C(=O)N(CCCCCCN2C(=O)C4C5CC6C7(C)CCCC(C)(C(=O)O)C7CCC6(C=C5C(C)C)C4C2=O)C(=O)C13` (stereo unspecified) gave a TGI of 26.8 µM.
For `COC1OC2COC(c3ccccc3)OC2C(O)C1OC(=S)c1ccccc1` (stereo unspecified), the TGI was greater than 100 µM.
`COc1cc2c(cc1OCCCN1C(=O)c3cccc4cccc(c34)C1=O)N=C[C@@H]1CCCN1C2=O` was tested, and the TGI was greater than 85.1 µM.
`COC(=O)c1ccccc1CC1Cc2cccc(C)c2C1=O` (stereo unspecified) was tested, and the TGI was greater than 100 µM.
In the case of `COc1ccc(/C=N/NC(=O)c2ccc(O)c(CN(C)C)c2)cc1`, the TGI is reported as greater than 100 µM.

Each compound was assayed on NCI-H460 lung (assay: inhibition of tumour cell growth, NCI panel, 48 h).
Compound `C=CC1(C)CC(=O)C2(O)C(C)(O1)C(OC(C)=O)C(O)C1C(C)(C)CCC(O)C12C` (stereo unspecified) has a TGI greater than 150 µM.
Compound `CN1Cc2c(nc(-c3ccccc3)c[n+]2[O-])N(C)C1` has a TGI greater than 100 µM.
With `C=C(CN(C)C)C(=O)c1ccc(C(=O)C(=C)CN(C)C)cc1` the TGI was greater than 100 µM.
`CO/N=C(/C(=O)OC)c1ccccc1COc1ccccc1C(F)(F)F` showed a TGI greater than 100 µM.
For `COc1cc(Nc2ccc3c(c2)CCC3)nc(OC)n1`, the TGI was greater than 100 µM.
For `Cc1cc(C)nc(NC(=S)Nc2ccc([N+](=O)[O-])cc2)c1`, the TGI was greater than 100 µM.
Compound `CCOC(=O)c1c2cccccc-2nc1Nc1cccc2c(C)ccnc12` has a TGI greater than 10 µM.
`Cc1c2c(c(C)n1-c1ccccc1)C(=O)N(CCN1CCN(c3cccc(C(F)(F)F)c3)CC1)C2=O` gave a TGI greater than 100 µM.
Compound `O[C@H]1[C@H](O)[C@@H](O)CN2CC[C@H](O)[C@H]12` has a TGI greater than 100 µM.
`Clc1sc(Cl)c2c1[C@@H](Cl)C[C@@H]2Br` gave a TGI greater than 100 µM.
Compound `O=C(OCC(Cl)(Cl)Cl)N1CC[C@H](C2CCCCC2)C1` has a TGI of 35.1 µM.
In the case of `CC(NC(=O)C(C)(C)NC(=O)C(CC(=O)OCc1ccccc1)NC(=O)OCc1ccccc1)C(N)=O` (stereo unspecified) (Cbz-Asp(OBn)-[Aib]-Ala-NH2; configuration not given here), the TGI is reported as greater than 100 µM.
With `c1ccc(C(C(=Nc2ccc(Cc3ccc(N=C(C(c4ccccc4)c4ccccc4)N4CC4)cc3)cc2)N2CC2)c2ccccc2)cc1` the TGI was 13.4 µM.
For `C=C(C)CNCCN`, the TGI was greater than 100 µM.
With `Cc1ccnc(NC(=S)Nc2ccc([N+](=O)[O-])cc2)c1` the TGI was greater than 100 µM.
In the case of `CC(C)(CO)CNc1nc(N)nc(Cl)c1/C=N/O`, the TGI is reported as greater than 100 µM.
`COc1ccc2oc(=N)c(C(=O)Nc3ccccc3)cc2c1` gave a TGI greater than 100 µM.
In the case of `O=C1c2cccc3cccc(c23)C(=O)N1CCCNCCCCNCCCNCCCN1C(=O)c2cccc3cccc(c23)C1=O`, the TGI is reported as 1.42 µM.
`O=c1onc2n1-c1cc(Cl)ccc1C(=S)N1CSCC21` (stereo unspecified) was tested, and the TGI was greater than 100 µM.
`COc1cc(C2c3cc4c(cc3[C@@H](Nc3ccccc3)C3COC(=O)[C@H]23)OCO4)cc(OC)c1O` (stereo partly specified) gave a TGI of 2.86 µM.
Work on `OC(C#CCN1CCCC1)(c1ccccc1)c1ccccc1Cl` (stereo unspecified) yielded a TGI of 41.5 µM.
Work on `CCc1n[nH]c(=O)n1-c1ccc2ccccc2c1` yielded a TGI greater than 100 µM.
`CSc1nc2c(c(N(C)C)n1)C(O)n1c(nc3ccccc31)S2` (stereo unspecified) gave a TGI greater than 100 µM.
Compound `O=C1NC(O)CCN1C1OC(CO)C(O)C1O` (stereo unspecified) has a TGI greater than 250 µM.
`O=C1CSC2(CC(/C=C/c3cccs3)=NN2c2cccc(S(=O)(=O)O)c2)N1c1nc2ccccc2s1` (stereo unspecified) showed a TGI greater than 100 µM.
In the case of `COc1ccc(-c2nc3ccccc3c(=S)n2OC(C)=O)cc1`, the TGI is reported as greater than 25 µM.
In the case of `O=C(c1ccccc1)c1ccc2c(c1)NC(=O)c1ccccc1SSc1ccccc1C(=O)N2`, the TGI is reported as greater than 100 µM.
`CCCCOCCOC1=C(Cl)C(=O)c2c(O)ccc(O)c2C1=O` gave a TGI of 3.48 µM.
Work on `CC1=C(C#N)c2nc3ccccc3n2C(=O)C1(C)CCO` (stereo unspecified) yielded a TGI greater than 100 µM.
`CCN(CC)c1ccc(/C=C/c2ccnc3ccccc23)cc1` gave a TGI greater than 100 µM.
